Laboratory results as given in patent publication US12384800B2, “Antitumoral compounds” (priority 2017, dated 2025).

Key:
MDA-MB-231 tumors = assay: Human breast xenograft, tumor volume
A2780 tumors = assay: Human ovarian xenograft, tumor volume
Protocol: (§1) Female athymic nu/nu mice (Harlan Laboratories Models, S.L. Barcelona, Spain or Envigo, Spain) were utilized for all experiments. Animal were housed in individually ventilated cages Sealsafe® Plus, Techniplast S.P.A.), up to ten per cage on a 12-hour light-dark cycle at 21-23° C. and 40-60% humidity. […] Animals were acclimated for at least 5 days prior to tumor implantation with a tumor cell suspension.
Culture cells were passaged every 3 to 5 days upon reaching confluence. Each animal was subcutaneously implanted (on the right flank using 26G needle and a 1 cc syringe) at 4-6 weeks of age with 10×10^6 A2780 cells suspended in 0.05 mL of a solution consisting of 50% Matrigel® (Corning Incorporated Life Sciences) and 50% medium without serum or antibiotics.
(§2) Treatment tolerability was assessed by monitoring body weight evolution, clinical signs of systemic toxicity, as well as evidences of local damage in the injection site.
(§3) In Xenograft Studies with Other Cell Lines: • Tumor volume was calculated using the equation (a·b^2)/2, where a: length (longest diameter) and b: width (shortest diameter) were measured in mm by using digital caliper (Fowler Sylvac, S235PAT).
(§4) Treatments producing >20% lethality and/or 20% net body weight loss were considered toxic.

HGC27 tumors = assay: Human gastric xenograft, tumor volume
Protocol: as §1
HGC27 cells were maintained in vitro at 37° C. with 5% CO2 in Iscove's Modified Dulbecco's Medium (Sigma Aldrich, Co). Culture cells were passage every 3 to 5 days on reaching confluence. Each animal was subcutaneously implanted (on the right flank using 26G needle and a 1 cc syringe) at 4-6 weeks of age with 5×10^6 HGC-27 cells suspended in 0.05 mL of a solution consisting of 50% Matrigel® (Corning Incorporated Life Sciences), 50% medium without serum or antibiotics.
as §2, §3, §4

HT1080 tumors = assay: Human fibrosarcoma xenograft, total diameter (tumor + leg)
Protocol: as §1
HT1080 cells were maintained in vitro at 37° C. with 5% CO2 in Minimum Essential Medium Eagle (MEME) (Sigma-Aldrich, Co). Each animal was orthotopically implanted into gastroecnemius muscle by an intramuscular injection using a 26G needle and a 1 cc syringe at 4-6 weeks of age, with 10×10^6 HT1080 cells, suspended in serum free medium, without antibiotics.
as §2
In xenograft studies with HT1080 cell line: • Total diameter (tumor+leg) measurements were determined by using digital caliper (Fowler Sylvac, S235PAT).
as §4

H460 tumors = assay: Human lung (NSCLC) xenograft, tumor volume

COc1c(C)cc2c(c1O)[C@@H]1[C@@H]3[C@@H]4SC[C@]5(N[C@@H](CN)Cc6c5[nH]c5ccccc65)C(=O)OC[C@@H](c5c6c(c(C)c(OC(C)=O)c54)OCO6)N3[C@@H](O)[C@H](C2)N1C [Compound 12-R]
Median Tumor Volume (MDA-MB-231 tumors; Day 2): 223.0 mm^3
Median Tumor Volume (MDA-MB-231 tumors; Day 5): 296.1 mm^3
Median Tumor Volume (MDA-MB-231 tumors; Day 7): 378.3 mm^3
Median Tumor Volume (MDA-MB-231 tumors; Day 9): 472.7 mm^3
Median Tumor Volume (MDA-MB-231 tumors; Day 12): 609.9 mm^3
Median Tumor Volume (MDA-MB-231 tumors; Day 14): 782.5 mm^3
Median Tumor Volume (MDA-MB-231 tumors; Day 16): 972.4 mm^3
Median Tumor Volume (MDA-MB-231 tumors; Day 19): 1211.0 mm^3
Median Tumor Volume (MDA-MB-231 tumors; Day 21): 1463.4 mm^3
Median Tumor Volume (MDA-MB-231 tumors; Day 23): 1756.5 mm^3
Median Tumor Volume (MDA-MB-231 tumors; Day 26): 2028.6 mm^3
Median Tumor Volume (A2780 tumors; Day 2): 302.8 mm^3
Median Tumor Volume (A2780 tumors; Day 5): 786.5 mm^3
Median Tumor Volume (A2780 tumors; Day 7): 1113.3 mm^3
Median Tumor Volume (A2780 tumors; Day 9): 1490.6 mm^3
Median Tumor Volume (A2780 tumors; Day 12): 2025.00 mm^3
Median Tumor Volume (A2780 tumors; Day 14): 2025.00 mm^3
Median Tumor Volume (HGC27 tumors; Day 2): 413.3 mm^3
Median Tumor Volume (HGC27 tumors; Day 5): 809.1 mm^3
Median Tumor Volume (HGC27 tumors; Day 7): 1261.5 mm^3
Median Tumor Volume (HGC27 tumors; Day 9): 1589.5 mm^3
Median Tumor Volume (HGC27 tumors; Day 12): 2017.9 mm^3
Median Tumor Volume (HGC27 tumors; Day 14): 2034.9 mm^3
Total diameter (tumor + leg) (HT1080 tumors; Day 2): 8.9 mm
Total diameter (tumor + leg) (HT1080 tumors; Day 5): 8.8 mm
Total diameter (tumor + leg) (HT1080 tumors; Day 7): 9.5 mm
Total diameter (tumor + leg) (HT1080 tumors; Day 9): 9.5 mm
Total diameter (tumor + leg) (HT1080 tumors; Day 12): 11.0 mm
Total diameter (tumor + leg) (HT1080 tumors; Day 14): 11.7 mm
Total diameter (tumor + leg) (HT1080 tumors; Day 16): 12.9 mm
Total diameter (tumor + leg) (HT1080 tumors; Day 19): 13.5 mm
Total diameter (tumor + leg) (HT1080 tumors; Day 21): 15.5 mm
Total diameter (tumor + leg) (HT1080 tumors; Day 23): 18.0 mm
Median Tumor Volume (H460 tumors; Day 2): 410.7 mm^3
Median Tumor Volume (H460 tumors; Day 5): 796.7 mm^3
Median Tumor Volume (H460 tumors; Day 7): 1167.9 mm^3
Median Tumor Volume (H460 tumors; Day 9): 1360.3 mm^3
Median Tumor Volume (H460 tumors; Day 12): 1666.0 mm^3
Median Tumor Volume (H460 tumors; Day 14): 2025.0 mm^3
